pIC50: −log10 of the molar value.
Assays:
calf thymus DNA (ctDNA) = assay: Terbium (Tb3+) luminescent biosensor detection of induced DNA damage; type: biochemical; settings: for Tb luminescence enhancement (induced DNA damage): ctDNA incubated with compound 24 h, emission 545 nm, excitation 270 nm, compared with ctDNA-Tb mixture
Description: Luminescence studies were accomplished in order to examine the possible DNA interaction with the studied compounds. Many luminescent biosensors are reported in literature for studying the possibility of DNA interaction with small molecules. […] Figure 5 presents a schematic diagram for the fluorometric detection of the induced DNA damage using Tb biosensor. Tb^3+ ion in the Tb luminescent probe is a trivalent lanthanide cation having low intrinsic luminescence in aqueous solutions[45]^,[46]. When Tb biosensor is added to a solution of DNA, it interacts differently with double-stranded DNA (dsDNA) and single-stranded DNA (ssDNA). With dsDNA, Tb^3+ ions are electrostatically attracted to the negatively charged phosphate backbone of the DNA. […] Therefore, the assessed compound damages dsDNA, ssDNA sites would be formed opposite to the site of damage and Tb^3+ would directly coordinate to the unpaired nucleobases in this single-stranded site.
For investigating the DNA interaction potential of the fourteen studied compounds, calf thymus DNA (ctDNA) was incubated with each compound for 24 h and then Tb was added to each mixture. Doxorubicin (DOX), a commonly used reference for DNA damaging agent was used and treated the same condition as the studied compounds. Tb luminescent intensity was measured at λmax = 545 nm after excitation at λmax = 270 nm.
Several concentrations within the range of 0.1 pM–200.0 μM of each of the studied compounds were incubated with ctDNA for 24 h. After which, Tb solution was added to aliquots of such mixtures and the luminescence intensity was recorded. Figure 7 presents Tb luminescence intensity as a function of the compound concentration for various compound/ctDNA/Tb mixtures. At minimum concentration of the studied compounds, minimum Tb luminescence was recorded. This reflects that the DNA molecule is undamaged, intact and acquiring a double helical structure. In this conformation, Tb ions are electrostatically attracted to the negatively charged DNA-phosphate backbone showing no increase in its luminescence. For solutions with higher concentrations of compounds 5b, 5h, and 5j (Figure 7a,c,and d). Tb fluorescence increased proportionally with the concentration until a concentration of 100 and 60 μM for compounds 5b, 5h, and 5j, respectively, where no further increase in the fluorescence occurs. This reflects that more DNA damage is induced with increasing concentrations of the three compounds. At concentrations higher than 100 and 60 μM for compounds 5b, 5h, and 5j, respectively, Tb luminescence remains constant at high fluorescence levels. […] Table 1 illustrates the analytical parameters elucidated as shown in Figure 7 for the quantification of the induced DNA damage by the studied compounds. The linearity parameters were calculated from the calibration curve in Figure 7-inset in order to obtain the minimum concentration of the studied compounds that would induce DNA damage.
Fluorescence measurements: Fluorescence spectra were measured between 290 and 800 nm with excitation at 270 nm of 100 µL solutions in a 1 cm path length Suprasil quartz fluorescence cuvette.
The PerkinElmer LS 55 fluorescence spectrophotometer was used to measure the fluorescence. After 24 h of incubation in buffer solution (40 mM Tris, 10 mM NaCl, pH 7.5), aliquots of each DNA-Compound mixture were combined with TbCl3 to confirm DNA damage. The final concentrations were […] ctDNA, 3 mM TbCl3, and 50 µM of each compound in buffer solution (40 mM Tris, 10 mM NaCl, pH 7.5). Calf thymus DNA (ctDNA) was combined with various quantities of each substance, ranging from 0.1 pM to 200 µM, for the experiment. The ultimate concentrations of […] ctDNA and 3 mM were achieved by adding Tb3 + solution to the ctDNA/compound combinations in buffer solution (40 mM Tris, 10 mM NaCl, pH 7.5) after 24 h of incubation.[44]
All chemicals, solvents, media and kits were purchased from commercial suppliers. […]

[1] = test system: human colon cancer (HCT-116); assay: MTT cytotoxicity assay, HCT-116; type: cell-based; settings: 24 h treatment, read-out: IC50 against HCT-116
Procedure: (§1) All chemicals, solvents, media and kits were purchased from commercial suppliers.
(§2) In vitro anticancer screening […]
(§3) against three cancer cell lines namely: hepatocellular carcinoma (HepG2), human breast adenocarcinoma (MCF-7) and human colon cancer (HCT -116) utilizing MTT assay2. Compounds […]
(§4) 5b and 5h were screened for their effects on the normal breast cell line MCF‐10a. Cells at a density of 1 × 104 were seeded in a 96‐well plate at 37°C for 48 hr under 5% CO2. After incubation, the cells were treated with different concentrations of the prepared molecules and incubated for 24 hr.
(§5) MTT dye was added after 24 h of drug treatment and incubated for 4 h at 37°C. Also, 100 μl of dimethyl sulphoxide was added to each well to dissolve the purple formazan formed. The color intensity of the formazan product, which represents the growth condition of the cells, was quantified using an enzyme‐linked immunosorbent assay (ELISA) plate reader at 570 nm. The experiments were carried out with at least three replicates and they were repeated at least three […]
(§6) *: Statistically significant at p ≤ 0.05
(§7) Means with any Common letter (a-e) are not significant (OR Means with totally Different letters (a-e) are significant)

[2] = test system: hepatocellular carcinoma (HepG2); assay: MTT cytotoxicity assay, HepG2; type: cell-based; settings: Homo sapiens, 24 h treatment, read-out: IC50 against HepG2
Procedure: (§8) (Supplementary file). Compounds 5b and 5h were screened for their effects on the normal breast cell line MCF‐10a. Cells at a density of 1 × 104 were seeded in a 96‐well plate at 37 °C for 48 h under 5% CO2. After incubation, the cells were treated with different concentrations of the prepared molecules and incubated for 24 h. MTT dye was added after 24 h of drug treatment and incubated for 4 h at 37 °C. Also, 100 μl of dimethyl sulphoxide was added to each well to dissolve the purple formazan formed. The colour intensity of the formazan product, which represents the growth condition of the cells, was quantified using an enzyme‐linked immunosorbent assay (ELISA) plate reader at 570 nm. The experiments were carried out with at least three replicates and they were repeated at least three times.
as §1, §2, §3, §4, §5, §6, §7

MCF-7 cells [3] = assay: Annexin V-FITC/PI apoptosis induction analysis (flow cytometry); type: cell-based, human; settings: MCF-7, compound at its IC50, 24 h
[4] = test system: human breast adenocarcinoma (MCF-7); assay: MTT cytotoxicity assay, MCF-7; type: cell-based
Procedure: as §8, §1, §2, §3, §4, §5, §6, §7

[5] = test system: normal breast cell line (MCF-10a); assay: MTT cytotoxicity assay, normal breast cell line MCF-10a; type: cell-based; settings: Homo sapiens, 24 h treatment, read-out: IC50 against MCF-10a (normal cell)
Procedure: as §8, §4, §5, §6
Means with any Common letter (a-e) are not significant (OR Means with totally Different letters (a-e) are significant) Annexin V-FITC/PI Apoptosis Induction Analysis 3
Apoptosis detection in MCf-7 cells was assessed using BioVision® annexin‐V‐FITC apoptosis detection kit according to the manufacturer's instructions and quantified by flow cytometry at 488

MCF-7 cells [6] = assay: Cell cycle analysis (DNA flow cytometry, PI)
Procedure: Cell cycle analysis: A FACS Calibur flow cytometer was used to measure the amount of DNA in the cell cycle analysis at 488 nm in accordance with the manufacturer’s recommendations. […] Cells were treated, rinsed twice, and then re-suspended in ice-cold PBS (phosphate buffer saline). After washing, 0.7 ml of 100% ethanol was added, and the mixture was then allowed to sit at 20 °C for 20 min. After washing, 500 μl of RNase was added, and then the mixture was incubated for 30 min. After that, PI was added, and the mixture was incubated without light for 30 min[22]^,[51].
3 Replica for each group Data was expressed using Mean ± SEM.
SEM: Standard error of mean
F: F for One way ANOVA test, Pairwise comparison bet. each 2 groups was done using Post Hoc Test (Tukey)
p: p value for comparing between the studied groups
p0: p value for comparing between Control and each other group
p1: p value for comparing between 5h and 5b
p2: p value for comparing between 5h and Dox
p3: p value for comparing between 5b and Dox
DNA content in the cell cycle analysis was quantified with the help ofa FACS Calibur flow
cytometer at 488 nm according to the manufacturer's instructions. Briefly, 2 × 10^5 cells/well were
cells were washed two times and resuspended in ice-cold phosphate buffer saline PBS. After
washing, 0.7 ml absolute ethanol was then added, followed by incubation at −20°C for 20 min.
After washing, 500 μl RNase was added, followed by incubation for 30 min. PI was then added,
followed by incubation for 30 min (light was avoided).

[7] = MCF-7, compound at its IC50, 24 h, listed as Dox

Compound: Cn1c(-c2ccccc2)cn(N=C2C(=O)c3cccc4cccc2c34)c1=S [5a, 2-((3-Methyl-4-phenyl-2-thioxo-2,3-dihydro-1H-imidazol-1-yl)imino)acenaphthylen-1(2H)-one]
- melting point: 220 to 222 °C

Compound: O=C1C(=Nn2cc(-c3ccccc3)n(Cc3ccccc3)c2=S)c2cccc3cccc1c23 [5c, 2-((3-Benzyl-4-phenyl-2-thioxo-2,3-dihydro-1H-imidazol-1-yl)imino)-acenaphthylen-1(2H)-one]
- melting point: 212 to 214 °C

Compound: O=C1C(=Nn2cc(-c3ccccc3)n(C3CCCCC3)c2=S)c2cccc3cccc1c23 [5d, 2-((3-Cyclohexyl-4-phenyl-2-thioxo-2,3-dihydro-1H-imidazol-1-yl)imino)-acenaphthylen-1(2H)-one]
- melting point: 192 to 194 °C

Compound: COc1cccc(-n2c(-c3ccccc3)cn(N=C3C(=O)c4cccc5cccc3c45)c2=S)c1 [5e, 2-((3-(3-Methoxyphenyl)-4-phenyl-2-thioxo-2,3-dihydro-1H-imidazol-1-yl)imino)-acenaphthylen-1(2H)-one]
- Tb luminescence enhancement (induced DNA damage) (calf thymus DNA (ctDNA)): significant enhancement
- Concentration at which Tb luminescence stops increasing (maximum DNA damage) (calf thymus DNA (ctDNA); ctDNA, 24 h incubation): 80 µM
- Concentration up to which no enhancement of Tb luminescence intensity occurs (calf thymus DNA (ctDNA); ctDNA, 24 h incubation): 20 µM
- LOD (limit of detection; minimum concentration inducing detectable damage in ctDNA) (calf thymus DNA (ctDNA); ctDNA, 24 h incubation): 14.2 nM
- LOQ (limit of quantitation) (calf thymus DNA (ctDNA); ctDNA, 24 h incubation): 46.9 nM
- melting point: 212 to 214 °C

Compound: C=CCn1c(-c2ccccc2)cn(N=C2C(=O)c3cccc4cccc2c34)c1=S [5f, 2-((3-Allyl-4-phenyl-2-thioxo-2,3-dihydro-1H-imidazol-1-yl)imino)acenaphthylen-1(2H)-one]
- Tb luminescence enhancement (induced DNA damage) (calf thymus DNA (ctDNA)): minimum enhancement
- melting point: 212 to 214 °C

Compound: Cn1c(-c2ccc(Cl)cc2)cn(N=C2C(=O)c3cccc4cccc2c34)c1=S [5g, 2-((4–(4-Chlorophenyl)-3-methyl-2-thioxo-2,3-dihydro-1H-imidazol-1-yl)imino)-acenaphthylen-1(2H)-one]
- melting point: 262 to 264 °C

Compound: O=C1C(=Nn2cc(-c3ccc(Cl)cc3)n(Cc3ccccc3)c2=S)c2cccc3cccc1c23 [5i, 2-((3-Benzyl-4-(4-chlorophenyl)-2-thioxo-2,3-dihydro-1H-imidazol-1-yl)imino)-acenaphthylen-1(2H)-one]
- melting point: 260 to 262 °C

Compound: COc1cccc(-n2c(-c3ccc(Cl)cc3)cn(N=C3C(=O)c4cccc5cccc3c45)c2=S)c1 [5j, 2-((4-(4-Chlorophenyl)-3-(3-methoxyphenyl)-2-thioxo-2,3-dihydro-1H-imidazol-1-yl)-imino)acenaphthylen-1(2H)-one]
- pIC50 [1]: 4.96
- pIC50 [2]: 5.10
- Tb luminescence enhancement (induced DNA damage) (calf thymus DNA (ctDNA)): significant enhancement
- Concentration at which Tb luminescence stops increasing (maximum DNA damage) (calf thymus DNA (ctDNA); ctDNA, 24 h incubation): 60 µM
- LOD (limit of detection; minimum concentration inducing detectable damage in ctDNA) (calf thymus DNA (ctDNA); ctDNA, 24 h incubation): 12.7 nM
- LOQ (limit of quantitation) (calf thymus DNA (ctDNA); ctDNA, 24 h incubation): 42.4 nM
- melting point: 282 to 284 °C

Compound: C=CCn1c(-c2ccc(Cl)cc2)cn(N=C2C(=O)c3cccc4cccc2c34)c1=S [5k, 2-((3-Allyl-4-(4-chlorophenyl)-2-thioxo-2,3-dihydro-1H-imidazol-1-yl)imino)-acenaphthylen-1(2H)-one]
- Tb luminescence enhancement (induced DNA damage) (calf thymus DNA (ctDNA)): minimum enhancement
- melting point: 262 to 264 °C

Compound: Cn1c(-c2ccc3ccccc3c2)cn(N=C2C(=O)c3cccc4cccc2c34)c1=S [5l, 2-((3-Methyl-4-(naphthalen-2-yl)-2-thioxo-2,3-dihydro-1H-imidazol-1-yl)imino)-acenaphthylen-1(2H)-one]
- melting point: 240 to 242 °C

Compound: O=C1C(=Nn2cc(-c3ccc4ccccc4c3)n(Cc3ccccc3)c2=S)c2cccc3cccc1c23 [5m, 2-((3-Benzyl-4-(naphthalen-2-yl)-2-thioxo-2,3-dihydro-1H-imidazol-1-yl)imino)-acenaphthylen-1(2H)-one]
- melting point: 332 to 334 °C

Compound: C=CCn1c(-c2ccc3ccccc3c2)cn(N=C2C(=O)c3cccc4cccc2c34)c1=S [5n, 2-((3-Allyl-4-(naphthalen-2-yl)-2-thioxo-2,3-dihydro-1H-imidazol-1-yl)imino)-acenaphthylen-1(2H)-one]
- Tb luminescence enhancement (induced DNA damage) (calf thymus DNA (ctDNA)): minimum enhancement
- melting point: 230 to 232 °C

Compound: COc1cccc2c1C(=O)c1c(O)c3c(c(O)c1C2=O)C[C@@](O)(C(=O)CO)C[C@@H]3O[C@H]1C[C@H](N)[C@H](O)[C@H](C)O1 [doxorubicin, reference compound]
- Apoptosis results: Early apoptosis (MCF-7 cells [3]): 8.3 ± 0.53%
- Apoptosis results: Late apoptosis (MCF-7 cells [3]): 31.3 ± 0.62%
- Apoptosis results: Total (MCF-7 cells [3]): 46.2 ± 0.53%
- Apoptosis results: Early apoptosis (MCF-7 cells [3]; listed as Dox): 8.3 ± 0.53%
- Apoptosis results: Late apoptosis (MCF-7 cells [3]; listed as Dox): 31.3 ± 0.62%
- Apoptosis results: Necrosis (MCF-7 cells [3]; listed as Dox): 6.6 ± 0.61%
- pIC50 ([4]; Homo sapiens, MCF7, MTT, 24 h treatment, read-out: IC50 against MCF-7): 5.08
- Selectivity Index (SI) ([4]; against MCF-7, relative to normal MCF-10a): 3.9
- pIC50 [5]: 4.49
- Phase of cell cycle arrest (MCF-7 cells [6]; MCF-7, compound at its IC50): G1/S phase
- Cell cycle arrest (%) G0-G1 (MCF-7 cells [6]; [7]): 63.5 ± 0.51%
- Cell cycle arrest (%) G2/M (MCF-7 cells [6]; [7]): 2.4 ± 0.73%
- Cell cycle arrest (%) S (MCF-7 cells [6]; [7]): 34.2 ± 0.22%
- Tb luminescence enhancement (induced DNA damage) (calf thymus DNA (ctDNA)): significant enhancement
- LOD (limit of detection; minimum concentration inducing detectable damage in ctDNA) (calf thymus DNA (ctDNA); ctDNA, 24 h incubation): 4.09 nM
- LOQ (limit of quantitation) (calf thymus DNA (ctDNA); ctDNA, 24 h incubation): 13.7 nM

— paper PMC10946275, “New imidazole-2-thiones linked to acenaphythylenone as dual DNA intercalators and topoisomerase II inhibitors: structural optimization, docking, and apoptosis studies” (Journal of Enzyme Inhibition and Medicinal Chemistry, 2024)
